# Laboratory results taken from the supplement of paper PMC10307832.
# Key:
# Test in all cases: relative viability (nuclei count vs DMSO), 5 days (fraction); higher = more cells survive
# Avagacestat + Foretinib = compound: NC(=O)[C@@H](CCC(F)(F)F)N(Cc1ccc(-c2ncon2)cc1F)S(=O)(=O)c1ccc(Cl)cc1 [Avagacestat] + COc1cc2c(Oc3ccc(NC(=O)C4(C(=O)Nc5ccc(F)cc5)CC4)cc3F)ccnc2cc1OCCCN1CCOCC1 [Foretinib] (partner 0.25 µM)
# Outline: (§1)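 After 5 days of treatment, lung cancer cells in 1536-well plates were fixed and stained in a single step (final 0.05% Triton X-100, 1% formaldehyde, 1 ug/ml Hoechst) and their nuclei counted on 4× images. Treatment had been applied by pin tool the day after seeding as one drug alone or as a fixed anchor-drug dose with five library-drug doses (not always all listed) in √10 steps. Relative viability is the nuclei count of treated wells divided by that of vehicle wells, and values are medians of duplicate plates.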
# Avagacestat + Pictilisib = compound: NC(=O)[C@@H](CCC(F)(F)F)N(Cc1ccc(-c2ncon2)cc1F)S(=O)(=O)c1ccc(Cl)cc1 [Avagacestat] + CS(=O)(=O)N1CCN(Cc2cc3nc(-c4cccc5[nH]ncc45)nc(N4CCOCC4)c3s2)CC1 [Pictilisib] (partner 1 µM)
# Outline: as §1
# [1] = compound: NC(=O)[C@@H](CCC(F)(F)F)N(Cc1ccc(-c2ncon2)cc1F)S(=O)(=O)c1ccc(Cl)cc1 [Avagacestat] + CC(=O)c1c(C)c2cnc(Nc3ccc(N4CCNCC4)cn3)nc2n(C2CCCC2)c1=O [Palbociclib] (partner 0.5 µM)
# Outline: as §1
# Avagacestat + Bortezomib = compound: NC(=O)[C@@H](CCC(F)(F)F)N(Cc1ccc(-c2ncon2)cc1F)S(=O)(=O)c1ccc(Cl)cc1 [Avagacestat] + CC(C)C[C@H](NC(=O)[C@H](Cc1ccccc1)NC(=O)c1cnccn1)B(O)O [Bortezomib] (partner 0.002 µM)
# Outline: as §1
cell line,measurement,setting,value
NCI-H2405,relative viability,Avagacestat + Foretinib; first compound 0.08 µM,1.04
same,relative viability,Avagacestat + Foretinib; first compound 0.253 µM,1.03
same,relative viability,Avagacestat + Foretinib; first compound 0.8 µM,0.998
same,relative viability,Avagacestat + Foretinib; first compound 2.53 µM,0.938
same,relative viability,Avagacestat + Foretinib; first compound 8 µM,0.927
same,relative viability,Avagacestat + Pictilisib; first compound 0.08 µM,0.432
same,relative viability,Avagacestat + Pictilisib; first compound 0.253 µM,0.465
same,relative viability,Avagacestat + Pictilisib; first compound 0.8 µM,0.473
same,relative viability,Avagacestat + Pictilisib; first compound 2.53 µM,0.329
same,relative viability,Avagacestat + Pictilisib; first compound 8 µM,0.377
same,relative viability,[1]; first compound 0.08 µM,0.512
same,relative viability,[1]; first compound 0.253 µM,0.532
same,relative viability,[1]; first compound 0.8 µM,0.478
same,relative viability,[1]; first compound 2.53 µM,0.448
same,relative viability,[1]; first compound 8 µM,0.489
same,relative viability,Avagacestat + Bortezomib; first compound 0.08 µM,1.06
same,relative viability,Avagacestat + Bortezomib; first compound 0.253 µM,1.03
same,relative viability,Avagacestat + Bortezomib; first compound 0.8 µM,0.999
same,relative viability,Avagacestat + Bortezomib; first compound 2.53 µM,0.919
same,relative viability,Avagacestat + Bortezomib; first compound 8 µM,0.94
NCI-H3122,relative viability,Avagacestat + Foretinib; first compound 0.08 µM,0.945
same,relative viability,Avagacestat + Foretinib; first compound 0.253 µM,1
same,relative viability,Avagacestat + Foretinib; first compound 0.8 µM,0.992
same,relative viability,Avagacestat + Foretinib; first compound 2.53 µM,0.964
same,relative viability,Avagacestat + Foretinib; first compound 8 µM,0.991
same,relative viability,Avagacestat + Pictilisib; first compound 0.08 µM,0.723
same,relative viability,Avagacestat + Pictilisib; first compound 0.253 µM,0.751
same,relative viability,Avagacestat + Pictilisib; first compound 0.8 µM,0.748
same,relative viability,Avagacestat + Pictilisib; first compound 2.53 µM,0.715
same,relative viability,Avagacestat + Pictilisib; first compound 8 µM,0.607
same,relative viability,[1]; first compound 0.08 µM,0.198
same,relative viability,[1]; first compound 0.253 µM,0.191
same,relative viability,[1]; first compound 0.8 µM,0.248
same,relative viability,[1]; first compound 2.53 µM,0.221
same,relative viability,[1]; first compound 8 µM,0.182
same,relative viability,Avagacestat + Bortezomib; first compound 0.08 µM,1.06
same,relative viability,Avagacestat + Bortezomib; first compound 0.253 µM,1.03
same,relative viability,Avagacestat + Bortezomib; first compound 0.8 µM,1.05
same,relative viability,Avagacestat + Bortezomib; first compound 2.53 µM,1.01
same,relative viability,Avagacestat + Bortezomib; first compound 8 µM,0.969
PC-3 [JPC-3],relative viability,Avagacestat + Foretinib; first compound 0.08 µM,1.19
same,relative viability,Avagacestat + Foretinib; first compound 0.253 µM,1.09
same,relative viability,Avagacestat + Foretinib; first compound 0.8 µM,1.15
same,relative viability,Avagacestat + Foretinib; first compound 2.53 µM,1.02
same,relative viability,Avagacestat + Foretinib; first compound 8 µM,1.01
same,relative viability,Avagacestat + Pictilisib; first compound 0.08 µM,0.806
same,relative viability,Avagacestat + Pictilisib; first compound 0.253 µM,0.903
same,relative viability,Avagacestat + Pictilisib; first compound 0.8 µM,0.794
same,relative viability,Avagacestat + Pictilisib; first compound 2.53 µM,0.772
same,relative viability,Avagacestat + Pictilisib; first compound 8 µM,0.72
same,relative viability,[1]; first compound 0.08 µM,0.544
same,relative viability,[1]; first compound 0.253 µM,0.574
same,relative viability,[1]; first compound 0.8 µM,0.66
same,relative viability,[1]; first compound 2.53 µM,0.562
same,relative viability,[1]; first compound 8 µM,0.6
same,relative viability,Avagacestat + Bortezomib; first compound 0.08 µM,0.789
same,relative viability,Avagacestat + Bortezomib; first compound 0.253 µM,1.01
same,relative viability,Avagacestat + Bortezomib; first compound 0.8 µM,0.924
same,relative viability,Avagacestat + Bortezomib; first compound 2.53 µM,0.902
same,relative viability,Avagacestat + Bortezomib; first compound 8 µM,0.914
PC-14,relative viability,Avagacestat + Foretinib; first compound 0.08 µM,1.1
same,relative viability,Avagacestat + Foretinib; first compound 0.253 µM,1.08
same,relative viability,Avagacestat + Foretinib; first compound 0.8 µM,1.1
same,relative viability,Avagacestat + Foretinib; first compound 2.53 µM,0.956
same,relative viability,Avagacestat + Foretinib; first compound 8 µM,0.817
same,relative viability,Avagacestat + Pictilisib; first compound 0.08 µM,1.06
same,relative viability,Avagacestat + Pictilisib; first compound 0.253 µM,0.627
same,relative viability,Avagacestat + Pictilisib; first compound 0.8 µM,0.673
same,relative viability,Avagacestat + Pictilisib; first compound 2.53 µM,0.544
same,relative viability,Avagacestat + Pictilisib; first compound 8 µM,0.539
same,relative viability,[1]; first compound 0.08 µM,0.645
same,relative viability,[1]; first compound 0.253 µM,0.618
same,relative viability,[1]; first compound 0.8 µM,0.687
same,relative viability,[1]; first compound 2.53 µM,0.461
same,relative viability,[1]; first compound 8 µM,0.524
same,relative viability,Avagacestat + Bortezomib; first compound 0.08 µM,1.12
same,relative viability,Avagacestat + Bortezomib; first compound 0.253 µM,1.12
same,relative viability,Avagacestat + Bortezomib; first compound 0.8 µM,0.848
same,relative viability,Avagacestat + Bortezomib; first compound 2.53 µM,0.785
same,relative viability,Avagacestat + Bortezomib; first compound 8 µM,0.77
RERF-LC-KJ,relative viability,Avagacestat + Foretinib; first compound 0.08 µM,0.987
same,relative viability,Avagacestat + Foretinib; first compound 0.253 µM,1.07
same,relative viability,Avagacestat + Foretinib; first compound 0.8 µM,0.993
same,relative viability,Avagacestat + Foretinib; first compound 2.53 µM,0.859
same,relative viability,Avagacestat + Foretinib; first compound 8 µM,0.842
same,relative viability,Avagacestat + Pictilisib; first compound 0.08 µM,0.526
same,relative viability,Avagacestat + Pictilisib; first compound 0.253 µM,0.599
same,relative viability,Avagacestat + Pictilisib; first compound 0.8 µM,0.549
same,relative viability,Avagacestat + Pictilisib; first compound 2.53 µM,0.464
same,relative viability,Avagacestat + Pictilisib; first compound 8 µM,0.617
same,relative viability,[1]; first compound 0.08 µM,1.16
same,relative viability,[1]; first compound 0.253 µM,1.23
same,relative viability,[1]; first compound 0.8 µM,1.2
same,relative viability,[1]; first compound 2.53 µM,1.09
same,relative viability,[1]; first compound 8 µM,1.14
same,relative viability,Avagacestat + Bortezomib; first compound 0.08 µM,1.17
same,relative viability,Avagacestat + Bortezomib; first compound 0.253 µM,1.37
same,relative viability,Avagacestat + Bortezomib; first compound 0.8 µM,1.16
same,relative viability,Avagacestat + Bortezomib; first compound 2.53 µM,1.04
same,relative viability,Avagacestat + Bortezomib; first compound 8 µM,1.02
SK-LU-1,relative viability,Avagacestat + Foretinib; first compound 0.08 µM,0.993
same,relative viability,Avagacestat + Foretinib; first compound 0.253 µM,0.879
same,relative viability,Avagacestat + Foretinib; first compound 0.8 µM,0.852
same,relative viability,Avagacestat + Foretinib; first compound 2.53 µM,0.575
same,relative viability,Avagacestat + Foretinib; first compound 8 µM,0.66
same,relative viability,Avagacestat + Pictilisib; first compound 0.08 µM,0.628
same,relative viability,Avagacestat + Pictilisib; first compound 0.253 µM,0.526
same,relative viability,Avagacestat + Pictilisib; first compound 0.8 µM,0.586
same,relative viability,Avagacestat + Pictilisib; first compound 8 µM,0.354
same,relative viability,[1]; first compound 0.08 µM,0.377
same,relative viability,[1]; first compound 0.253 µM,0.372
same,relative viability,[1]; first compound 0.8 µM,0.327
same,relative viability,[1]; first compound 2.53 µM,0.338
same,relative viability,[1]; first compound 8 µM,0.345
same,relative viability,Avagacestat + Bortezomib; first compound 0.08 µM,1.46
same,relative viability,Avagacestat + Bortezomib; first compound 0.253 µM,1.21
same,relative viability,Avagacestat + Bortezomib; first compound 0.8 µM,1.32
same,relative viability,Avagacestat + Bortezomib; first compound 2.53 µM,1.13
same,relative viability,Avagacestat + Bortezomib; first compound 8 µM,0.737
SW 1573,relative viability,Avagacestat + Foretinib; first compound 0.08 µM,0.917
same,relative viability,Avagacestat + Foretinib; first compound 0.253 µM,0.866
same,relative viability,Avagacestat + Foretinib; first compound 0.8 µM,0.88
same,relative viability,Avagacestat + Foretinib; first compound 2.53 µM,0.867
same,relative viability,Avagacestat + Foretinib; first compound 8 µM,1.02
same,relative viability,Avagacestat + Pictilisib; first compound 0.08 µM,0.771
same,relative viability,Avagacestat + Pictilisib; first compound 0.253 µM,0.625
same,relative viability,Avagacestat + Pictilisib; first compound 0.8 µM,0.524
same,relative viability,Avagacestat + Pictilisib; first compound 2.53 µM,0.492
same,relative viability,Avagacestat + Pictilisib; first compound 8 µM,0.444
same,relative viability,[1]; first compound 0.08 µM,0.512
same,relative viability,[1]; first compound 0.253 µM,0.422
same,relative viability,[1]; first compound 0.8 µM,0.475
same,relative viability,[1]; first compound 2.53 µM,0.337
same,relative viability,[1]; first compound 8 µM,0.357
same,relative viability,Avagacestat + Bortezomib; first compound 0.08 µM,1.26
same,relative viability,Avagacestat + Bortezomib; first compound 0.253 µM,1.03
same,relative viability,Avagacestat + Bortezomib; first compound 0.8 µM,1.19
same,relative viability,Avagacestat + Bortezomib; first compound 2.53 µM,0.967
same,relative viability,Avagacestat + Bortezomib; first compound 8 µM,0.922
UMC-11,relative viability,Avagacestat + Foretinib; first compound 0.08 µM,1.19
same,relative viability,Avagacestat + Foretinib; first compound 0.253 µM,1.15
same,relative viability,Avagacestat + Foretinib; first compound 0.8 µM,1.26
same,relative viability,Avagacestat + Foretinib; first compound 2.53 µM,1.13
same,relative viability,Avagacestat + Foretinib; first compound 8 µM,1.06
same,relative viability,Avagacestat + Pictilisib; first compound 0.08 µM,0.966
same,relative viability,Avagacestat + Pictilisib; first compound 0.253 µM,0.747
same,relative viability,Avagacestat + Pictilisib; first compound 0.8 µM,0.964
same,relative viability,Avagacestat + Pictilisib; first compound 2.53 µM,0.844
same,relative viability,Avagacestat + Pictilisib; first compound 8 µM,0.867
same,relative viability,[1]; first compound 0.08 µM,0.325
same,relative viability,[1]; first compound 0.253 µM,0.312
same,relative viability,[1]; first compound 0.8 µM,0.323
same,relative viability,[1]; first compound 2.53 µM,0.315
same,relative viability,[1]; first compound 8 µM,0.34
same,relative viability,Avagacestat + Bortezomib; first compound 0.08 µM,0.915
same,relative viability,Avagacestat + Bortezomib; first compound 0.253 µM,0.563
same,relative viability,Avagacestat + Bortezomib; first compound 0.8 µM,0.722
same,relative viability,Avagacestat + Bortezomib; first compound 2.53 µM,0.749
same,relative viability,Avagacestat + Bortezomib; first compound 8 µM,0.414
